From ChEMBL document CHEMBL1159247, “Isolation of Novel Beauvericin Analogues from the Fungus Beauveria bassiana” (1995)
Converted amounts (≈) assume the structure as drawn.

Test system: Aedes aegypti
Assay: Insecticidal in Aedes aegypti fourth instar mosquito larvae after 24 hrs
Format: functional

| SMILES | LC50 [µg/mL] |
| --- | --- |
| CC[C@H](C)[C@H]1OC(=O)[C@H](Cc2ccccc2)N(C)C(=O)[C@@H](C(C)C)OC(=O)[C@H](Cc2ccccc2)N(C)C(=O)[C@@H](C(C)C)OC(=O)[C@H](Cc2ccccc2)N(C)C1=O [BEAUVERICIN A] | 31 (≈ 38.8 µM) |
| CC(C)[C@@H]1OC(=O)[C@@H](Cc2ccccc2)N(C)C(=O)[C@H](C(C)C)OC(=O)[C@@H](Cc2ccccc2)N(C)C(=O)[C@H](C(C)C)OC(=O)[C@@H](Cc2ccccc2)N(C)C1=O [BEAUVERICIN] | 26 (≈ 33.2 µM) |
